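These data come from cells grown in 96-well plates and exposed to compound for 48 hours at five concentrations. GI50 is the concentration that inhibits growth by half.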 The source made the active and inactive calls. Rule as the data show it: active = GI50 up to about 1.1 µM and inactive = higher. Non-standard residues stand in square brackets, D forms with d. Residues, ends and D or L forms follow the SMILES beside them. *: point of attachment. hSer = N[CH](CCO)C(=O)O; Boc = CC(C)(C)OC(=O)*
Tests used:
Assay in all cases: NCI tumour cell line growth inhibition, 48 h
SK-MEL-2 = test system: SK-MEL-2
OVCAR-3 = test system: OVCAR-3
RXF 393 = test system: RXF 393
HL-60 = test system: HL-60
K562 = test system: K562
NCI/ADR-RES = test system: NCI/ADR-RES
HCC 2998 = test system: HCC 2998
UO-31 = test system: UO-31
CAKI-1 = test system: CAKI-1
EKVX = test system: EKVX
SW-620 = test system: SW-620
MCF7 = test system: MCF7
COLO 205 = test system: COLO 205
MDA-MB-435 = test system: MDA-MB-435
Hs-578T = test system: Hs-578T
NCI-H23 = test system: NCI-H23
UACC-62 = test system: UACC-62
ACHN = test system: ACHN
CCRF-CEM = test system: CCRF-CEM
HCT-15 = test system: HCT-15

| SMILES | GI50 (SK-MEL-2) | GI50 (OVCAR-3) | GI50 (RXF 393) | GI50 (HL-60) | GI50 (K562) | GI50 (NCI/ADR-RES) | GI50 (HCC 2998) | GI50 (UO-31) | GI50 (CAKI-1) | GI50 (EKVX) | GI50 (SW-620) | GI50 (MCF7) | GI50 (COLO 205) | GI50 (MDA-MB-435) | GI50 (Hs-578T) | GI50 (NCI-H23) | GI50 (UACC-62) | GI50 (ACHN) | GI50 (CCRF-CEM) | GI50 (HCT-15) [µM] |
| --- | --- | --- | --- | --- | --- | --- | --- | --- | --- | --- | --- | --- | --- | --- | --- | --- | --- | --- | --- | --- |
| COC(=O)[C@@]12C(=O)C=CC(=O)[C@@H]1C1C(=CC2COC(C)=O)O[C@@H]2OC3(CCCCC3)O[C@H]12 (stereo partly drawn) | 20.2 µM (inactive) | 6.37 µM (inactive) | 11.1 µM (inactive) | 2.89 µM (inactive) | 4.15 µM (inactive) | 12.8 µM (inactive) | 16.1 µM (inactive) | 14.9 µM (inactive) | 12.6 µM (inactive) | 15.4 µM (inactive) | 3.75 µM (inactive) | 14.1 µM (inactive) | 5.77 µM (inactive) | 16.2 µM (inactive) | 9.46 µM (inactive) | 17.1 µM (inactive) | 12.9 µM (inactive) | 9.04 µM (inactive) | 8.13 µM (inactive) | 5.66 |
| COc1nc(C(=O)NNC(=O)c2nc(OC)c3ccccc3c2-c2ccccc2)c(-c2ccccc2)c2ccccc12 | > 100 µM (inactive) | > 100 µM (inactive) | > 100 µM (inactive) | > 100 µM (inactive) | > 100 µM (inactive) | > 100 µM (inactive) | > 100 µM (inactive) | > 100 µM (inactive) | > 100 µM (inactive) | > 100 µM (inactive) | > 100 µM (inactive) | > 100 µM (inactive) | > 100 µM (inactive) | > 100 µM (inactive) | > 100 µM (inactive) | > 100 µM (inactive) | > 100 µM (inactive) | > 100 µM (inactive) | > 100 µM (inactive) | > 100 |
| Nc1c(OCC(=O)O)ccc2cc(S(=O)(=O)O)ccc12 | > 100 µM (inactive) | > 100 µM (inactive) | > 100 µM (inactive) | > 100 µM (inactive) | > 100 µM (inactive) | > 100 µM (inactive) | > 100 µM (inactive) | > 100 µM (inactive) | > 100 µM (inactive) |  | > 100 µM (inactive) | > 100 µM (inactive) | > 100 µM (inactive) | > 100 µM (inactive) | > 100 µM (inactive) | > 100 µM (inactive) | > 100 µM (inactive) | > 100 µM (inactive) | > 100 µM (inactive) | > 100 |
| COc1ccc2c(c1O)[C@@]13CCCC=C1[C@@H](C2)[N+](C)(C)CC3 | > 100 µM (inactive) | 37.2 µM (inactive) | > 100 µM (inactive) | 56.4 µM (inactive) | 57.8 µM (inactive) | > 100 µM (inactive) | > 100 µM (inactive) | > 100 µM (inactive) | > 100 µM (inactive) | > 100 µM (inactive) | > 100 µM (inactive) | > 100 µM (inactive) | 43.6 µM (inactive) | > 100 µM (inactive) | 77.3 µM (inactive) | > 100 µM (inactive) | > 100 µM (inactive) | > 100 µM (inactive) | > 100 µM (inactive) | > 100 |
| O=c1c2ccccc2nc(Cc2nc(-c3ccc(Cl)cc3)cs2)n1-c1ccc(Cl)cc1 | 28.1 µM (inactive) | 94.2 µM (inactive) | > 100 µM (inactive) | 66.2 µM (inactive) | 5.01 µM (inactive) | 57.5 µM (inactive) | 80 µM (inactive) | > 100 µM (inactive) | > 100 µM (inactive) | 64.6 µM (inactive) | 91.8 µM (inactive) | 46.9 µM (inactive) | 49.5 µM (inactive) | 46.3 µM (inactive) | > 100 µM (inactive) | 56.8 µM (inactive) | 5.78 µM (inactive) | 37 µM (inactive) | 17.6 µM (inactive) | 31.5 |
| O=C(NCc1ccc(Cl)c(Cl)c1)c1nc2ccccc2nc1NCc1ccc(Cl)c(Cl)c1 | > 100 µM (inactive) | > 100 µM (inactive) | > 100 µM (inactive) | > 100 µM (inactive) | > 100 µM (inactive) | > 100 µM (inactive) | > 100 µM (inactive) | > 100 µM (inactive) | > 100 µM (inactive) | > 100 µM (inactive) | > 100 µM (inactive) | > 100 µM (inactive) | > 100 µM (inactive) | > 100 µM (inactive) | > 100 µM (inactive) | > 100 µM (inactive) | > 100 µM (inactive) | > 100 µM (inactive) | > 100 µM (inactive) | > 100 |
| CC(C(=O)O)c1ccc(-c2ccccc2)c(F)c1 (stereo not drawn) [FLURBIPROFEN] | > 100 µM (inactive) |  | > 100 µM (inactive) | > 100 µM (inactive) | > 100 µM (inactive) | > 100 µM (inactive) | > 100 µM (inactive) | > 100 µM (inactive) | > 100 µM (inactive) | > 100 µM (inactive) | > 100 µM (inactive) | > 100 µM (inactive) | > 100 µM (inactive) | > 100 µM (inactive) | > 100 µM (inactive) |  | > 100 µM (inactive) | > 100 µM (inactive) | > 100 µM (inactive) | > 100 |
| N#C[C@H]1Nc2ccccc2[C@@H](O)C1O (stereo partly drawn) | > 100 µM (inactive) | > 100 µM (inactive) | > 100 µM (inactive) | > 100 µM (inactive) | > 100 µM (inactive) | > 100 µM (inactive) | > 100 µM (inactive) |  | > 100 µM (inactive) | > 100 µM (inactive) | > 100 µM (inactive) | > 100 µM (inactive) | > 100 µM (inactive) | > 100 µM (inactive) | > 100 µM (inactive) | > 100 µM (inactive) | > 100 µM (inactive) | > 100 µM (inactive) | > 100 µM (inactive) | > 100 |
| CC1(C)CC(=O)C(=CN2C(=O)CNC2=S)C(=O)C1 | > 100 µM (inactive) | > 100 µM (inactive) | 85.9 µM (inactive) | > 100 µM (inactive) |  | > 100 µM (inactive) | > 100 µM (inactive) | > 100 µM (inactive) | > 100 µM (inactive) | > 100 µM (inactive) | > 100 µM (inactive) | > 100 µM (inactive) | > 100 µM (inactive) | > 100 µM (inactive) | > 100 µM (inactive) | > 100 µM (inactive) | > 100 µM (inactive) | > 100 µM (inactive) | > 100 µM (inactive) | > 100 |
| C[C@H]1[C@H]2[C@H]3CC[C@@H]4[C@@]5(C)CC[C@H](O)C(C)(C)[C@@H]5CC[C@@]4(C)[C@]3(C)C[C@H](O)[C@@]2(C)C[C@H]2O[C@]21C | 19 µM (inactive) | 16.4 µM (inactive) | 16.7 µM (inactive) | 44 µM (inactive) |  | 18.5 µM (inactive) | 17.5 µM (inactive) |  | 25.1 µM (inactive) | 24.2 µM (inactive) | 24 µM (inactive) | 16.5 µM (inactive) | 24 µM (inactive) | 18.9 µM (inactive) | 25.2 µM (inactive) | 18.2 µM (inactive) | 23.2 µM (inactive) | 15.2 µM (inactive) | 32.4 µM (inactive) | 20.1 |
| COc1ccc2c(c1)CCC(CN1CCN(CCOC(c3ccc(F)cc3)c3ccc(F)cc3)CC1)C2O (stereo not drawn) | 15 µM (inactive) | 14.9 µM (inactive) | 12.3 µM (inactive) | 0.687 µM (active) | 4.51 µM (inactive) | 12.5 µM (inactive) | 3.49 µM (inactive) |  | 15.8 µM (inactive) | 11.6 µM (inactive) | 21.1 µM (inactive) | 19.3 µM (inactive) | 4.59 µM (inactive) | 16 µM (inactive) | 15.4 µM (inactive) | 14.5 µM (inactive) | 11.5 µM (inactive) | 5.93 µM (inactive) | 14.9 µM (inactive) | 10.4 |
| O=C1NC2(CN3CCC2CC3)C(=O)N1CN(Cc1ccccc1)c1ccccc1 (stereo not drawn) | > 100 µM (inactive) | > 100 µM (inactive) | 27 µM (inactive) | 21.1 µM (inactive) |  | > 100 µM (inactive) | 39.6 µM (inactive) | 25.1 µM (inactive) | > 100 µM (inactive) | > 100 µM (inactive) | 31.7 µM (inactive) | 47.9 µM (inactive) | 92.7 µM (inactive) | > 100 µM (inactive) | > 100 µM (inactive) | 44.4 µM (inactive) | > 100 µM (inactive) | 72.8 µM (inactive) |  | 41.2 |
| O=C1N/C(=N/N=C/C(O)C(O)C(O)C(O)CO)N/C1=C\c1cccs1 (stereo not drawn) | > 100 µM (inactive) | > 100 µM (inactive) | > 100 µM (inactive) | > 100 µM (inactive) | > 100 µM (inactive) | > 100 µM (inactive) | > 100 µM (inactive) |  | > 100 µM (inactive) | 87.1 µM (inactive) | > 100 µM (inactive) | > 100 µM (inactive) | > 100 µM (inactive) | > 100 µM (inactive) | > 100 µM (inactive) | > 100 µM (inactive) | > 100 µM (inactive) | > 100 µM (inactive) | > 100 µM (inactive) | > 100 |
| COCCC(NC(=O)C(CC(C)C)NC(=O)OC(C)(C)C)C(N)=O (stereo not drawn) (Boc-Leu-[hSer](Me)-NH2; configuration not given here) | > 100 µM (inactive) | > 100 µM (inactive) | > 100 µM (inactive) | > 100 µM (inactive) | > 100 µM (inactive) | > 100 µM (inactive) | > 100 µM (inactive) | > 100 µM (inactive) | > 100 µM (inactive) | > 100 µM (inactive) | > 100 µM (inactive) | > 100 µM (inactive) | > 100 µM (inactive) | > 100 µM (inactive) | > 100 µM (inactive) |  | > 100 µM (inactive) | > 100 µM (inactive) | > 100 µM (inactive) | > 100 |
